We go through eight molecules from patent US20180265515A1 (Genentech, Inc., priority 2015, published 2018).

SMILES strings stand for the structures.

The subject of test [1] is JAK1-dependent STAT6 phosphorylation downstream of IL-13 stimulation in BEAS-2B human bronchial epithelial cells. As to the kind of experiment: JAK1 pathway assay in BEAS-2B cells (IL-13 stimulated STAT6 phosphorylation, MSD). The format is cell-based. The conditions noted are these: read-out: P-STAT6 BEAS2B + IL13 IC50. In a few lines: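 BEAS-2B human bronchial epithelial cells, plated the day before in complete growth medium, were preincubated with compound for 1 hr at 37° C (0.2% DMSO final), then stimulated with IL-13 at its EC90 for 15 min. STAT6 phosphorylation in lysates was read by MSD; EC50 was taken as 50% inhibition versus DMSO control.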

Test [2] has as its target T1, isolated recombinant JAK2 kinase domain (Homo sapiens, UniProt O60674).
T1 construct: The activity of the isolated recombinant JAK1 and JAK2 kinase domain was measured
Description: JAK2 enzyme assay (Caliper LabChip, Ki). In kind it is biochemical. As to conditions: 25 μM ATP. The method, boiled down: (§1)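 Caliper LabChip read-out: fraction of FAM-labeled JAK3-derived peptide converted to phosphopeptide by isolated JAK1/JAK2 kinase domain. Reaction 30 min, 22° C; stopped with EDTA, 50 mM final. Ki via Morrison tight-binding model, Ki=Ki,app/(1+[ATP]/Km,app).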

The target of test [3] is T2, isolated recombinant JAK1 kinase domain (Homo sapiens, UniProt P23458).
T2 construct: The activity of the isolated recombinant JAK1 and JAK2 kinase domain was measured
T2 sequence (P23458 875-1153 limits assumed): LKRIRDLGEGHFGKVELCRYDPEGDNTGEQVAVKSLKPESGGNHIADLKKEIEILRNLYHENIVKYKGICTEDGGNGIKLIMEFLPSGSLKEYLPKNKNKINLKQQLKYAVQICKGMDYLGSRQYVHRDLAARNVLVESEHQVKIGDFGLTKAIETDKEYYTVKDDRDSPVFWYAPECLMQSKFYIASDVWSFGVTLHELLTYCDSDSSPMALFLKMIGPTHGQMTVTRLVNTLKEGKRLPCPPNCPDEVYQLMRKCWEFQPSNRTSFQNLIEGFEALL
Description: JAK1 enzyme assay (Caliper LabChip, Ki). The format is biochemical. The conditions noted are these: recombinant JAK1 kinase domain, 25 μM ATP. The method, boiled down:
as §1

T1 sequence (O60674 849-1124 limits assumed): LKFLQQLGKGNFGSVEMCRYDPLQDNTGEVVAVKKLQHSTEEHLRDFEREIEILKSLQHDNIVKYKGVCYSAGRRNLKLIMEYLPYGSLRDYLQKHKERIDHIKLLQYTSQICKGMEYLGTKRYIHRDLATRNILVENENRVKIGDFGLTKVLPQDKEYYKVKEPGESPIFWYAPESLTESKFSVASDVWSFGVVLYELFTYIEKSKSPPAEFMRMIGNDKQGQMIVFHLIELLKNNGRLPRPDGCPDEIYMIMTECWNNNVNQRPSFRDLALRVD

On to `CC(C)Sc1ccc(OC(F)F)c(-c2n[nH]cc2NC(=O)c2cnn3cccnc23)c1` [Example 101, N-[3-[2-(difluoromethoxy)-5-(propan-2-ylsulfanyl)phenyl]-1H-pyrazol-4-yl]pyrazolo[1,5-a]pyrimidine-3-carboxamide], for which the IC50 in test [1] worked out at 3.7 nM. For the same molecule, the Ki in test [2] stood at 0.093 nM; in test [3] it was 0.2 nM.
For `CC(C)Sc1ccc(OC(F)F)c(-c2nn(CC(=O)N3CCC(N4CCOCC4)CC3)cc2NC(=O)c2cnn3cccnc23)c1` [Example 102, N-[3-[2-(difluoromethoxy)-5-isopropylsulfanyl-phenyl]-1-[2-(4-morpholino-1-piperidyl)-2-oxo-ethyl]pyrazol-4-yl]pyrazolo[1,5-a]pyrimidine-3-carboxamide], in that order: 20 nM, 0.85 nM and 0.38 nM.
For `CC(C)Sc1ccc(OC(F)F)c(-c2nn(CC(=O)N3CCN(CCCC#N)CC3)cc2NC(=O)c2cnn3cccnc23)c1` [Example 103, N-[1-[2-[4-(3-cyanopropyl)piperazin-1-yl]-2-oxo-ethyl]-3-[2-(difluoromethoxy)-5-isopropylsulfanyl-phenyl]pyrazol-4-yl]pyrazolo[1,5-a]pyrimidine-3-carboxamide], in that order: 41 nM, 0.75 nM and 0.33 nM.
The corresponding values for `CC(C)Sc1ccc(OC(F)F)c(-c2nn(CC(=O)N3CCC(NCC(=O)N(C)C)CC3)cc2NC(=O)c2cnn3cccnc23)c1` [Example 104, N-[3-[2-(difluoromethoxy)-5-isopropylsulfanyl-phenyl]-1-[2-[4-[[2-(dimethylamino)-2-oxo-ethyl]amino]-1-piperidyl]-2-oxo-ethyl]pyrazol-4-yl]pyrazolo[1,5-a]pyrimidine-3-carboxamide] are 160 nM, 1.2 nM and 0.42 nM.
`CC(C)Sc1ccc(OC(F)F)c(-c2nn(CC(=O)N3CCC(N(C)CC(=O)N(C)C)CC3)cc2NC(=O)c2cnn3cccnc23)c1` [Example 105, N-[3-[2-(difluoromethoxy)-5-isopropylsulfanyl-phenyl]-1-[2-[4-[[2-(dimethylamino)-2-oxo-ethyl]-methyl-amino]-1-piperidyl]-2-oxo-ethyl]pyrazol-4-yl]pyrazolo[1,5-a]pyrimidine-3-carboxamide]: the IC50 in test [1] worked out at 72 nM. The values for the Ki in test [2] and in test [3] were 1.3 nM and 0.43 nM, respectively.
Take `CC(C)Sc1ccc(OC(F)F)c(-c2nn(CC(=O)N3CCC(N4CCN(C)C(=O)C4)CC3)cc2NC(=O)c2cnn3cccnc23)c1` [Example 106, N-[3-[2-(difluoromethoxy)-5-isopropylsulfanyl-phenyl]-1-[2-[4-(4-methyl-3-oxo-piperazin-1-yl)-1-piperidyl]-2-oxo-ethyl]pyrazol-4-yl]pyrazolo[1,5-a]pyrimidine-3-carboxamide]: in test [1], the half-inhibitory concentration (IC50) is 110 nM. In addition, the Ki in test [2] is 0.79 nM; in test [3] it was 0.4 nM.
For `CC(C)Sc1ccc(OC(F)F)c(-c2nn(CC(=O)N3CCC(N4CCCC(C#N)C4)CC3)cc2NC(=O)c2cnn3cccnc23)c1` (stereo not drawn) [Example 107, N-[1-[2-[4-(3-cyano-1-piperidyl)-1-piperidyl]-2-oxo-ethyl]-3-[2-(difluoromethoxy)-5-isopropylsulfanyl-phenyl]pyrazol-4-yl]pyrazolo[1,5-a]pyrimidine-3-carboxamide], in that order: 56 nM, 1.7 nM and 0.75 nM.
For `CC(C)Sc1ccc(OC(F)F)c(-c2nn(CC(=O)N3CCC(N4CCNC(=O)C4)CC3)cc2NC(=O)c2cnn3cccnc23)c1` [Example 108, N-[3-[2-(difluoromethoxy)-5-isopropylsulfanyl-phenyl]-1-[2-oxo-2-[4-(3-oxopiperazin-1-yl)-1-piperidyl]ethyl]pyrazol-4-yl]pyrazolo[1,5-a]pyrimidine-3-carboxamide], in that order: 850 nM, 0.94 nM and 0.37 nM.

The term IC50 denotes the concentration at which inhibition is half-maximal. As usually defined, the Ki is a measure of affinity in units of concentration, obtained from inhibition or displacement.
